Activity calls are given as the source filed them. No rule for the calls is given here.
Test system: Trypanosoma brucei growth inhibition
Assay: T. brucei growth inhibition (AID 1159557);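 also: parasites exposed to compound for 48 h before the resazurin readout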

Row | Compound | IC50
1 | Clc1ccc(CN2CCN(C3=NCCN3)CC2)cc1Cl | > 40 µM (inactive)
2 | C[C@@H](Oc1cc(-n2cnc3ccc(C(O)CO)cc32)sc1C(N)=O)c1ccccc1C(F)(F)F (stereo not given in full) | 0.4 µM
3 | COc1ccccc1-c1c(C)[nH]c2nc(N)nc(C)c12 | 25 µM
4 | CCOc1ccc(NC(=O)c2ccc(NC(=O)NC3CCCCC3)cc2)cc1 | 0.2 µM
5 | O=C(Cn1cnc2cc([N+](=O)[O-])ccc2c1=O)NCCc1ccc(Cl)cc1Cl | 13 µM
6 | O=C1COC(c2ccccc2)(c2ccccc2)CN1C1CCN(Cc2ccc(-n3ccnc3)cc2)CC1 | 0.79 µM
7 | O=S(=O)(NCC(c1cccnc1)N1CCN(c2ccc(F)cc2)CC1)c1cccs1 (stereo not given) | > 40 µM (inactive)
8 | CCc1nn(-c2ncc(F)c(NC(C)C)n2)c(N)c1C1CCCCC1 | 10 µM
9 | COc1ccc(-c2cnc(NC(=O)c3cc(-c4ccccn4)n[nH]3)n2C)cc1 | 0.4 µM
10 | Cc1ccccc1NS(=O)(=O)c1ccc2[nH]cc(C(=O)NC3CCCCC3)c(=O)c2c1 | 0.25 µM
11 | COc1ccc2ncc(F)c(NC(=O)C3(O)CCC(NCc4ccc5c(c4)OCCO5)CC3)c2n1 (stereo not given) | 0.79 µM
12 | CC(C)N(C(=O)CN1C(=O)C(N)C(=O)N(c2ccccc2)c2ccccc21)c1ccccc1 (stereo not given) | > 40 µM (inactive)
13 | Fc1ccc(Nc2nc(-c3ccccn3)cs2)cc1 | 25 µM
14 | O=C(Nc1nc(-c2ccccn2)cs1)c1ccc(S(=O)(=O)N2CCCCC2)cc1 | 0.4 µM
15 | O=c1[nH]c(NCCCNCc2cc(Br)cc(Br)c2)nc2ccsc12 | 0.1 µM

Results, then the compound that gave them:

Row | IC50 | Compound
16 | > 40 µM (inactive) | CNc1cncc(C2CCCN2C(=O)Cc2coc3cc(C)ccc23)n1 (stereo not given)
17 | > 40 µM (inactive) | Cc1c([N+](=O)[O-])c(C(=O)Nc2sc3c(c2C#N)CCC(C)C3)nn1C (stereo not given)
18 | > 40 µM (inactive) | CCN(C)Cc1ccc(N2CCC(NS(=O)(=O)c3ccc4c(c3)CCO4)CC2)nc1
19 | 10 µM | O=C(CSc1ccc(-c2ccccn2)nn1)Nc1ccc(Cl)cc1
20 | 0.79 µM | Cc1ccc(Nc2nc(C3CCCN3Cc3ccn[nH]3)cs2)nc1 (stereo not given)
21 | 16 µM | c1ccc(Nc2nc(-c3ccccn3)cc(N3CCOCC3)n2)cc1
22 | 5 µM | OCC1CCCCN1c1cc(-c2ccccn2)nc(Nc2ccccc2)n1 (stereo not given)
23 | > 40 µM (inactive) | CCc1cccc(-n2nc(OCC(=O)NC3CCCC3)c3cccnc32)c1
24 | 0.25 µM | CNC(=O)C1Cc2ccccc2N1C(=O)Cc1ccc(F)cc1 (stereo not given)
25 | 0.25 µM | O=C(NC(CO)c1ccc(F)cc1)c1ccc(-c2c[nH]c3ncccc23)s1 (stereo not given)
26 | 0.32 µM | COc1ccc(NS(=O)(=O)c2cc(-c3cc(C)[nH]n3)ccc2C)cc1OC
27 | 1 µM | Nc1nc(-c2ccccn2)nc(-n2nc(-c3ccccc3)cc2N)n1
28 | 0.63 µM | CN(Cc1nc2c(C(=O)N3CCN(Cc4ccccc4)CC3)cccc2[nH]1)C1CCCc2cccnc21 (stereo not given)
29 | 0.32 µM | O=c1cc(NCCCNCc2cc(C(F)(F)F)cs2)[nH]c2ccccc12
30 | > 40 µM (inactive) | CCC(c1ccc(F)cc1)n1cncc1-c1cnn(C)c1 (stereo not given)
31 | 0.2 µM | NS(=O)(=O)c1ccc(Nc2ncc3cccc(OC4CCNCC4)c3n2)cc1
32 | > 40 µM (inactive) | CN(Cc1nnnn1C1CCN(Cc2ccc(-n3ccnc3)cc2)CC1)c1ccc(F)cc1F
33 | 20 µM | Cc1cc2ncn(-c3ccc([N+](=O)[O-])cc3C#N)c2cc1C
34 | > 40 µM (inactive) | CC(Cn1ccnc1)NC(=O)COc1ccc(Cl)c(Cl)c1 (stereo not given)
35 | 40 µM | O=c1oc2ccccc2n1C1CCN(Cc2ccccc2-c2cccnc2)CC1

Source: PubChem BioAssay AID1159557 (GlaxoSmithKline (GSK), 2015)
